According to ChEMBL document CHEMBL1201862, “PubChem BioAssay data set” (2004):
The source made the active and inactive calls.

What was measured:
[1] = target: FAD-linked sulfhydryl oxidase ALR (Homo sapiens, UniProt P55789); assay: inhibitors of human ALR sulfhydryl oxidase, dose response, biochemical, H2O2 detection, luminescence, cherry-pick (AID 493248)
[2] = target: Voltage-gated inwardly rectifying potassium channel KCNH2 (Homo sapiens, UniProt Q12809); assay: hERG protection from proarrhythmic block, potency, dose response, cell-based, thallium flux (AID 2121); format: ADME
Chain of Voltage-gated inwardly rectifying potassium channel KCNH2 (Q12809 whole entry): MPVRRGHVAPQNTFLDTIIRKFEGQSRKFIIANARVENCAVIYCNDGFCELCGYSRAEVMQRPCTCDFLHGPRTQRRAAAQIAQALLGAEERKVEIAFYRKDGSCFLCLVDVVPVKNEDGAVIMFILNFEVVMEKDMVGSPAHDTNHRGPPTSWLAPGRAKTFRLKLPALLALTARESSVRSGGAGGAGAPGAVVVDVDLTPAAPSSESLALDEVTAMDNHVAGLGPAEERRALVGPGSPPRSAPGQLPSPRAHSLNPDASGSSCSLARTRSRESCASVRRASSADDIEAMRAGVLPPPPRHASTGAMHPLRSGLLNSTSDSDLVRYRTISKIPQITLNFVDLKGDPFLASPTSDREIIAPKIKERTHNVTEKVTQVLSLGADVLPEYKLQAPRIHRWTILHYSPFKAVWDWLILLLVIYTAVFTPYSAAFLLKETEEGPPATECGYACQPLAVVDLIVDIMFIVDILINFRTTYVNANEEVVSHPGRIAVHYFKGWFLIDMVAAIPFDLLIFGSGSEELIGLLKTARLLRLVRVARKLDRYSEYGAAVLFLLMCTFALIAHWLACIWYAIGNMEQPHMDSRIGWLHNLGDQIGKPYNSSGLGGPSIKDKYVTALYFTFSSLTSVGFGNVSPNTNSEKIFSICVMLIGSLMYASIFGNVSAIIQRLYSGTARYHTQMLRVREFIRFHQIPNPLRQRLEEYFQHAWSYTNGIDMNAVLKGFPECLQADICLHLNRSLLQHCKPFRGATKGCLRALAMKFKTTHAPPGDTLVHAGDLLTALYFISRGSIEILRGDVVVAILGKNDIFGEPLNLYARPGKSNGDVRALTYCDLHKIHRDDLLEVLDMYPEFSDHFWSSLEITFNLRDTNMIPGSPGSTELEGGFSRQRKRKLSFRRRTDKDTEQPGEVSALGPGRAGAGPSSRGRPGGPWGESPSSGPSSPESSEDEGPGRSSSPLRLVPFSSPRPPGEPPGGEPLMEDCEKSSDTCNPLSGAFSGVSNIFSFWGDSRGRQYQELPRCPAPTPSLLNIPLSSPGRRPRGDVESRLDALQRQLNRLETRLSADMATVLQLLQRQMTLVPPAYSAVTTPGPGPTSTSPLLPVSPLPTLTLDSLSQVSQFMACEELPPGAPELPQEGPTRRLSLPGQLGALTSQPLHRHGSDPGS

[3] = inhibitors of intracellular T. cruzi replication, confirmation, NIH3T3 host cells, beta-gal luminescence (AID 2044); format: functional, cell-based;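 further: intracellular parasites grown in NIH/3T3 mouse fibroblasts as host cells; luminescent beta-galactosidase reporter signal from transgenic T. cruzi replicating inside host cells; inhibitors lower the luminescence signal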
[4] = cells
[5] = cytotoxicity toward NIH3T3 fibroblasts, dose response, counter-screen, cell-based, ATP luminescence, mouse fibroblasts (AID 2010); format: functional;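 further: cells exposed to compound for about 90 hours before reading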
[6] = A Cell Based Secondary Assay To Explore Cytotoxicity of Compounds that Sensitize Mycobacterium Tuberculosis to Beta-Lactam Antibiotics.; format: functional
[7] = cytotoxicity in HPDE-C7 cells, cell-based, fluorescence, HTS (AID 430); format: functional; details: Homo sapiens
[8] = target: Cytochrome P450 2C9 (Homo sapiens, UniProt P11712)
Chain of Cytochrome P450 2C9 (P11712 whole entry): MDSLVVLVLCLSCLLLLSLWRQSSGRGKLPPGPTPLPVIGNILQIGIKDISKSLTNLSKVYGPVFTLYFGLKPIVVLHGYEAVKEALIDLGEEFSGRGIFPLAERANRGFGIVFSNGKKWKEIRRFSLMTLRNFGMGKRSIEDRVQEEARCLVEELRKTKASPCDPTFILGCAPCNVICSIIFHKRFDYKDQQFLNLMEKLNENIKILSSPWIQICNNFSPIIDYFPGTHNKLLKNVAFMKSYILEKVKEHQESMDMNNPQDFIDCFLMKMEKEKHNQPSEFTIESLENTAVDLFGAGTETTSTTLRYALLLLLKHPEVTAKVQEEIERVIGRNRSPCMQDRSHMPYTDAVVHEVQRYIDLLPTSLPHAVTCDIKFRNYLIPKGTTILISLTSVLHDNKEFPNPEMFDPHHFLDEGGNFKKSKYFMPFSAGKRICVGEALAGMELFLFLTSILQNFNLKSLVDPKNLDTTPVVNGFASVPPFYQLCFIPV

[9] = cytotoxicity in KRAS-transformed pancreatic duct cells, primary screen, cell-based, fluorescence, HTS (AID 431); format: functional; details: Homo sapiens;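 further: cell line used: HPDE-C7K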
[10] = system: Streptococcus sp. 'group A'; assay: growth inhibition of control SK(-) GAS strain, dose response, counter-screen for streptokinase expression inhibitor project, luminescence, kanamycin, BacTiterGlo, confirmation (AID 1900); format: functional, organism-based
[11] = C. albicans growth with fluconazole, confirmation, fluorescence, retest (AID 2467); format: functional, cell-based
[12] = system: Streptococcus; assay: Group A Streptococcus viability loss, dose response, counter-screen for streptokinase expression inhibitor project, luminescence, BacTiterGlo (AID 1915); format: functional, organism-based;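 further: potency for reduction of bacterial viability or growth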
[13] = NIH-3T3 fibroblast cytotoxicity, dose response, cytotoxicity control, cell-based, fluorescence, Alamar Blue, secondary assay (AID 2327); format: functional;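 further: NIH-3T3 mouse fibroblasts cultured with fluconazole at 8 µg/mL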
[14] = target: T1, Caspase-6 (Homo sapiens, UniProt P55212); assay: human caspase-6 inhibitors, dose response, biochemical, VEID-R110 fluorescence, cherry-pick (AID 720632)
T1 sequence (P55212 whole entry): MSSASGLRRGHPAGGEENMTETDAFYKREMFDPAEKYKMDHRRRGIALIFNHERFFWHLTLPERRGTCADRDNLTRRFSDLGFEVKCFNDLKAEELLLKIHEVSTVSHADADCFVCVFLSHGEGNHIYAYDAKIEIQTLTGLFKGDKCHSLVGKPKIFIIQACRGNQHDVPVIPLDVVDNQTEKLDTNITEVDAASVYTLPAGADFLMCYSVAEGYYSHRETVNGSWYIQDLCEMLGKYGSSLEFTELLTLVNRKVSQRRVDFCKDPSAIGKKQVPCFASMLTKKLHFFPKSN

[15] = HepG2 cell cytotoxicity, dose response, cytotoxicity control, cherry-picked samples (AID 1159577); format: functional, cell-based
[16] = P. falciparum Dd2 growth inhibitors, dose response, SYBR Green, cherry-picked samples (AID 1159567); format: functional, cell-based
[17] = target: T2, Protein RecA (Mycobacterium tuberculosis, UniProt P9WHJ3); assay: Fluorescence Cell-Free Homogeneous Dose Retest to Identify Inhibitors of RecA-Intein Splicing Activity. [Related pubchem assays (depositor defined):AID2097, AID2223, AID489010, AID492950]; format: functional
T2 sequence (P9WHJ3 whole entry): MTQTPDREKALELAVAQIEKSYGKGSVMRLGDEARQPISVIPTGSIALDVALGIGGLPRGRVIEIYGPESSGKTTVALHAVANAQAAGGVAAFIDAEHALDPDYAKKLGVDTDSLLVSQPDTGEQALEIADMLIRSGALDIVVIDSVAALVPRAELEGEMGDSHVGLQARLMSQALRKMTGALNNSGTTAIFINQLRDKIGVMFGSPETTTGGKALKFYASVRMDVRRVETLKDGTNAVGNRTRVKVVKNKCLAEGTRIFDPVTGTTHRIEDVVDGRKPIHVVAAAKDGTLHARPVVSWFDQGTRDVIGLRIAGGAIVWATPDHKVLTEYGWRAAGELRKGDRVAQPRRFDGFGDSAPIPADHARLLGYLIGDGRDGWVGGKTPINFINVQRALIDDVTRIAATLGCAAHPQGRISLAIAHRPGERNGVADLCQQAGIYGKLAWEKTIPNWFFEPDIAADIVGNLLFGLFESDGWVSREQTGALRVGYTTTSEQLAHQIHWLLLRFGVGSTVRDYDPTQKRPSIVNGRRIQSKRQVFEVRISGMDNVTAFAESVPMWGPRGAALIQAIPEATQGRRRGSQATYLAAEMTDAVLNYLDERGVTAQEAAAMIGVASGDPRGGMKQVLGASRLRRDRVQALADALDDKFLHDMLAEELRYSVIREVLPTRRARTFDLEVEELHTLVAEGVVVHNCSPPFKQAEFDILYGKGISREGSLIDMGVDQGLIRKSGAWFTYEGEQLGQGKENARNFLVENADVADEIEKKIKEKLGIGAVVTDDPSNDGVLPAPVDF

[18] = target: T3, Replicative DNA helicase DnaB (Mycobacterium tuberculosis, UniProt P9WMR3); assay: DnaB intein splicing inhibitors, dose response, biochemical, cell-free fluorescence (AID 449749); format: functional
T3 sequence (P9WMR3 whole entry): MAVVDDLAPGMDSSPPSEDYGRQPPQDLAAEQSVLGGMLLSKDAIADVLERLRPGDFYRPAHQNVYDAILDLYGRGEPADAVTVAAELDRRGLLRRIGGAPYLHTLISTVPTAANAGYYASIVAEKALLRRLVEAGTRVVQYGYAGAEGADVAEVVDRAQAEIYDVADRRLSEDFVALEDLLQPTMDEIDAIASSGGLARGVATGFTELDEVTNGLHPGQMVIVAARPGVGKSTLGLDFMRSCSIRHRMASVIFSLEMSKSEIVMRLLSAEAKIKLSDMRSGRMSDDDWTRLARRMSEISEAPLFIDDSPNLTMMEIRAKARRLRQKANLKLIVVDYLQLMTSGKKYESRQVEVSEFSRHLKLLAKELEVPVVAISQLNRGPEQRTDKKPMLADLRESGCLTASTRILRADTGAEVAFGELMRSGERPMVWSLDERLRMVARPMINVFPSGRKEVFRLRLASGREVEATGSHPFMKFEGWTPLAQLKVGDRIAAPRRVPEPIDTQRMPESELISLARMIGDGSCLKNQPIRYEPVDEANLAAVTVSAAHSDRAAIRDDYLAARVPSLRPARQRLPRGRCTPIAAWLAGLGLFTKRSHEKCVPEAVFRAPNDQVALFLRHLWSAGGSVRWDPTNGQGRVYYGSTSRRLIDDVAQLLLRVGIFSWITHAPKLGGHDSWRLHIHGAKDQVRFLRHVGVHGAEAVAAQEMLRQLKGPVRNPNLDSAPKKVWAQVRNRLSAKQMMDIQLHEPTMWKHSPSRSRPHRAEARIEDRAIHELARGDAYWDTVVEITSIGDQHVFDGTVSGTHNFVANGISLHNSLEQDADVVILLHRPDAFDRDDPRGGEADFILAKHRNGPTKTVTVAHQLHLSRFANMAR

[19] = M. tuberculosis H37Rv growth inhibitors, H37Rv strain (AID 1626); format: functional
[20] = Vero cell cytotoxicity, dose response, cytotoxicity control for Vif-APOBEC3G degradation inhibitor project, Vero cells (AID 1117358); format: functional; details: Human immunodeficiency virus 1, Vero
[21] = target: T4, Rac GTPase-activating protein 1 (Homo sapiens, UniProt Q9H0H5); assay: MgcRacGAP GTPase-activating activity inhibitors, confirmation, biochemical, ADP Hunter fluorescence, primary and confirmatory (AID 624330); format: functional
T4 sequence (Q9H0H5 whole entry): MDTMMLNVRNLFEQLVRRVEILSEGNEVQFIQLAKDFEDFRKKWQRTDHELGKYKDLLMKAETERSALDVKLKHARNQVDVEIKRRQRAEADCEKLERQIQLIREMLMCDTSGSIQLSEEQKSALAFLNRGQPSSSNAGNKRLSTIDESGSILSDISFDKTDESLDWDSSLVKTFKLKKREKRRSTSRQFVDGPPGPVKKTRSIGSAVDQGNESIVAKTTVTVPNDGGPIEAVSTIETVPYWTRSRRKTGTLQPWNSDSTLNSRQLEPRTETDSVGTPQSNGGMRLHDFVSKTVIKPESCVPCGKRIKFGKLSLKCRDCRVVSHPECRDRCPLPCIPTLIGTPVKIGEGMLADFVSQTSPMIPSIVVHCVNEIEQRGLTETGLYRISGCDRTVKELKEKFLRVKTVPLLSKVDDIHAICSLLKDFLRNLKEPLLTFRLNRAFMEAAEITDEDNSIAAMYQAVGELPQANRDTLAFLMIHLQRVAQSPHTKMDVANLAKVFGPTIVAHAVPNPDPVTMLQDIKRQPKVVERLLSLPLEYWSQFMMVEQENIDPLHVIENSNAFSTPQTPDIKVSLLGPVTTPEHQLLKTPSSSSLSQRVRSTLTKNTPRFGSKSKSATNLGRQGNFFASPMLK

[22] = target: T5, Oxysterols receptor LXR-beta (Homo sapiens, UniProt P55055); assay: LXR agonists, Gal4 luciferase reporter, dose response, counter-screen for ssDAF-12 agonist project, cell-based, luminescence, HEK293, S. stercoralis campaign (AID 720737); format: functional; details: read-out: IC50 (the source's name)
T5 sequence (P55055 whole entry): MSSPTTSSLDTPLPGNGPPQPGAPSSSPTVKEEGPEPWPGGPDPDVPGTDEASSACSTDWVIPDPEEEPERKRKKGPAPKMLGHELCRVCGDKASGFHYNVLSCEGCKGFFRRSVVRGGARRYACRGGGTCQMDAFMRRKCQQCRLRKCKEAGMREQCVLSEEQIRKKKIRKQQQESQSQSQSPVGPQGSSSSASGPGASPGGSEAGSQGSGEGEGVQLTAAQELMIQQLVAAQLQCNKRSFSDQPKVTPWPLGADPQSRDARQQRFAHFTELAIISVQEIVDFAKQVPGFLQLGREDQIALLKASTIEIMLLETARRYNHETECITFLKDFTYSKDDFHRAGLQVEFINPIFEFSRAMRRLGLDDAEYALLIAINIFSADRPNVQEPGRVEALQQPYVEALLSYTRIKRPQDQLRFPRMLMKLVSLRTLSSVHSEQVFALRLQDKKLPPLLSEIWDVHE

[23] = Luminescence-based cell-based high throughput dose response assay to identify activators of the DAF-12 from the parasite S. stercoralis (ssDAF-12).; format: functional

Chain of FAD-linked sulfhydryl oxidase ALR (P55789 whole entry): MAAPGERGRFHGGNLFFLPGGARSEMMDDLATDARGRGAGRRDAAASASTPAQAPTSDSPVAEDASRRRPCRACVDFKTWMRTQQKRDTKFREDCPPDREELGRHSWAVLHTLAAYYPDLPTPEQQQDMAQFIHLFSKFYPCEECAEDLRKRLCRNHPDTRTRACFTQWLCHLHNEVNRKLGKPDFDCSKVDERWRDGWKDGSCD

SMILES: Cc1ccc(/C=N/Nc2ccc(C(=O)O)cc2)o1
- AC50 [1]: 2.79 µM (active)
- EC50 [2]: 11 µM (active)

SMILES: O=C(CCC1CCCN(Cc2cccc(Cl)c2)C1)NCc1ccccc1F (configuration not stated)
- EC50 [3]: < 0.1 µM (active)
- EC50 [4]: 0.045 µM (active)
- EC50 [5]: > 30 µM (not active)

SMILES: O=C(CCS(=O)(=O)c1ccc(F)cc1)Nc1nnc(-c2cccs2)o1
- CC50 [6]: 24.3 µM (active)

SMILES: CS(=O)(=O)N(Cc1cc2ccccc2nc1O)C1CCCCC1
- EC50 [7]: > 20 µM (not active)
- AC50 [8]: 39.8 µM (inconclusive)
- EC50 [9]: > 20 µM (not active)

SMILES: C=C(C)CN=C(S)NN=C1c2ccccc2-c2ccccc21
- EC50 [2]: 0.95 µM (active)

SMILES: CC(C)(C)c1ccc(C(=O)CC(=O)c2cc(Cl)ccc2O)cc1
- EC50 [10]: 0.192 µM (active)
- EC50 [11]: 1.9 µM (active)
- EC50 [2]: 6.61 µM (active)
- EC50 [12]: 2.68 µM (active)
- EC50 [13]: 136 µM (active)

SMILES: O=C(Nc1nnc(Cc2c[nH]c3ccccc23)s1)c1ccc(Cl)cc1Cl
- AC50 [14]: 49.2 µM (active)

SMILES: CCC(=O)N1[C@H](CO)[C@H](c2ccc(C3=CCCC3)cc2)[C@H]1CNC1CCCC1
- AC50 [15]: > 42 µM (inactive)
- AC50 [16]: 5.63 µM (active)

SMILES: CCOc1ccc(N2C(=O)/C(=C\c3ccc(OC)c(O)c3)S(=O)(=O)C2c2cccc([N+](=O)[O-])c2)cc1 (configuration not stated)
- EC50 [17]: 6.38 µM (active)
- AC50 [18]: 10.2 µM (active)
- IC50 [19]: > 100 µM (active)

SMILES: COc1cc(-c2nnc(O)o2)cc(OC)c1OC
- CC50 [20]: > 40 µM (active)

SMILES: CC(=O)N1CCN(c2ccc(N)cc2)CC1
- AC50 [1]: 1.06 µM (active)
- IC50 [21]: 16.2 µM (active)
- AC50 [14]: 11.1 µM (active)

SMILES: Cc1ccc2nc(N(CCCN(C)C)C(=O)c3ccc(S(=O)(=O)N4CCOCC4)cc3)sc2c1
- EC50 [3]: < 0.1 µM (active)
- EC50 [4]: 0.007 µM (active)
- EC50 [5]: 10.8 µM (active)

SMILES: c1ccc(-c2cc(-c3nnc4n3N=C(c3ccc5ccccc5c3)CS4)n[nH]2)cc1
- EC50 [3]: 1.63 µM (active)
- CC50 [20]: > 40 µM (active)
- EC50 [5]: 7.45 µM (active)

SMILES: Cc1cc(C)c(N/C=C2/C(=O)N(c3nccs3)C(=O)c3ccccc32)c(C)c1
- CC50 [6]: > 40 µM (active)

SMILES: CC(C)(C)c1ccc(C(=O)Nn2c(CCC(=O)O)ccc2-c2cccs2)cc1
- AC50 [14]: 45.1 µM (active)

SMILES: CCOc1ccc(NC(=O)CSc2ccccc2N)cc1
- IC50 [19]: > 100 µM (active)

SMILES: Cc1nc(SCc2ccccc2F)c2oc3ccccc3c2n1
- IC50 [19]: > 100 µM (active)

SMILES: CC1=NN(C(=O)CCc2ccc3c(c2)OCO3)C(O)(C(F)(F)F)C1 (configuration not stated)
- EC50 [22]: > 67.5 µM (inactive)
- IC50 [23]: > 67.5 µM (inactive)

SMILES: Cc1ccc(NC(S)=NNc2ncc(C(F)(F)F)cc2Cl)cc1
- CC50 [20]: > 40 µM (active)

SMILES: Cc1ccc(-c2ccc([C@@H]3[C@H](CO)N4CCCCN(S(=O)(=O)c5ccccc5C)C[C@@H]34)cc2)cc1
- AC50 [15]: 11 µM (active)
- AC50 [16]: 0.589 µM (active)

SMILES: c1ccc(Cc2c(-c3ccco3)nc3c4ccccc4ccn23)cc1
- EC50 [22]: > 67.5 µM (inactive)
- IC50 [23]: > 67.5 µM (inactive)
